Reference: patent US20080103209A1, “Compounds And Methods For Treating Non-Inflammatory Pain Using Ppar Alpha Agonists” (The Regents of The University of California, priority 2004, published 2008)

What was measured:
Format in all cases: in vivo, mouse
C57BL6/J mice = assay: TPA-induced edema of abdominal skin, topical administration; settings: PEA 450 μg, GW7647 755 μg
Swiss mice [1] = assay: Complete Freund's adjuvant-induced arthritis, hyperalgesia; settings: 30 mg-kg^−1 s.c., 60 min before test, day 7 and 14 after CFA
Description: (§1) Mechanical hyperalgesia was determined by measuring paw withdrawal thresholds to an increasing pressure onto the dorsal surface of the paw using an analgesimeter (Ugo Basile, Italy) with a cut-off of 250 g. Withdrawal thresholds were measured on both the ipsilateral paw (inflamed or ligated) and contralateral paw (uninflamed or unligated) 60 min after subcutaneous drug administration.
(§2) Thermal hyperalgesia was assessed by the methods of Hargreaves (Hargreaves et al., Pain, 32, 77 (1988)) by measuring the latency to withdraw the hind paws from a focussed beam of radiant heat applied to the plantar surface, using an appropriate apparatus (Ugo Basile, Italy). The cut-off time was set at 30 sec. The mice were habituated to the apparatus for 10-15 min two days prior to the experiment.

PKAα catalytic subunit = assay: Immunoblot of lumbar spinal cord extracts, PKAα catalytic subunit; settings: neuropathic mice, PEA 30 mg-kg^−1 s.c. once daily for two weeks; change not statistically significant
Description: Opiate analgesics have a high liability to produce tolerance, a progressive loss of pharmacological activity caused by repeated drug administrations (Waldhoer et al., Annu Rev Biochem, 73, 953 (2004)). To assess whether tolerance develops to the antihyperalgesic effects of PPARα agonists, PEA (30 mg-kg^−1, s.c.) was administered once a day for 14 consecutive days from the time of surgery, measuring mechanical and thermal hyperalgesia at day 7 and 14.
Immunoblot analysis. Lumbar spinal cord tissue was weighed, homogenized in Tris-HCl (20 mM, pH 7.5), 10 mM NaF, 150 mM NaCl, 1% Nonidet P-40, 1 mM PMSF, 1 mM Na3VO4, leupeptin and trypsin inhibitor (10 μg/ml). After 1 h, the tissue lysates were subjected to centrifugation ay 100,000×g for 15 min at 4° C. Protein concentrations were estimated using a Bio-Rad protein assay and bovine serum albumin as a standard. Equal amounts of protein (20 μg) were dissolved in Laemmli sample buffer, boiled for 5 min, subjected to sodium dodecyl sulphate-polyacrylamide gel electrophoresis (8% polyacrylamide) and transferred onto nitrocellulose membranes at 240 mA for 40 min at room temperature. […] The films were scanned and densitometrically analysed with a model GS-700 imaging densitometer.

mice = assay: Formalin-evoked pain behavior (hind paw licking); settings: for early and late phase formalin-evoked nociception, combination with anandamide: 0.1 μg/paw of each; for anti-inflammatory effect (paw weight) after formalin: 50 μg/paw, 45 minutes after intraplantar formalin, C57BL/6J mice
Description: Administration of formalin into the mouse hind paw evokes a pain behavior consisting of two temporally distinct phases of licking and flexing of the injected limb (Dubuisson, et al., Pain 4, 161-74 (1977)). The first phase, which starts immediately after formalin injection and lasts 5-10 min, is due to activation of nociceptive fibers and is accompanied by the local release of nitric oxide and adenosine [Dickenson, et al., Neurosci Lett 83, 207-11 (1987); Omote, et al., Brain Res 787, 161-4 (1998); Omote et al., 2000; Liu, et al., J Neurochem 80, 562-70 (2002)]. Following a quiescent interval of 10-15 minutes, a second phase of nociceptive behavior appears, which is associated with local inflammation [Rosland, et al., Pain 42, 235-42 (1990)] and central sensitization [Coderre, et al., J Neurosci 12, 3665-70 (1992)]. […] (2001); Farquuar-Smith, 2002]. […] The effects of PEA in C57BL/6J mice in which the PPARα gene had been deleted by homologous recombination (PPARα^−/−)[Lee, et al., Mol Cell Biol 15, 3012-22 (1995)] were examined to determine whether PPARα contributes to these properties.
Although PPARα is known to regulate the inflammatory response [Devchand, et al., Nature 384, 39-43. (1996); Cabrero, et al., Curr Drug Targets Inflamm Allergy 1, 243-8 (2002); Berger, et al., Annu Rev Med 53, 409-35 (2002); Chinetti, et al., Inflamm Res 49, 497-505 (2000)], its roles in the modulation of acute nociceptive pain remain unexplored. A series of structurally diverse PPAR-α agonists were tested for their ability to reduce pain behavior in an animal model of chemical tissue damage. Injection of formalin into the mouse hind paw evokes a nocifensive behavior consisting of two distinct phases. The first phase results from direct activation of nociceptive fibers and starts immediately after formalin administration, while the second phase develops over a period of approximately 60 min and is associated with local inflammation and central sensitization.
Mice received intraplantar injections of formalin (5% vol/vol, 10 μl) in saline containing polyethylene glycol (5%) and Tween 80 (5%). The duration of paw licking was monitored by an observer for periods of 0-15 min (early or first phase) and 15-45 min (late or second phase) immediately after formalin administration.
Formalin test. Formalin (5%, 10 μl)-induced paw licking was monitored for 0-15 min (first phase) and 15-45 min (second phase) as described (Calignano, et al., Nature 394, 277-81 (1998).

Swiss mice [2] = assay: Sciatic nerve ligation neuropathy, mechanical and thermal hyperalgesia; settings: for mechanical and thermal pain thresholds in the non-ligated paw of neuropathic mice: data not shown; for neuropathic hypersensitivity (mechanical and thermal pain thresholds), ligated limb: single s.c. dose day 7 and 14 after surgery, 60 min before test, PEA, GW7647 30 mg-kg^−1, gabapentin 60 mg-kg^−1
Description: To examine whether PPARα agonists modulate the persistent pain hypersensitivity associated with nerve injury, peripheral neuropathy was produced in mice by partially ligating the left sciatic nerve, a surgical procedure that results in the development of mechanical and thermal hyperalgesia in the operated limb (Bennett et al., Pain, 33, 87 (1988)).
Sciatic nerve ligation was performed essentially following the method of Bennett and Xie (Bennett et al., Pain 33, 87 (1988)). Briefly, male Swiss mice were anesthetized with sodium pentobarbital, the left sciatic nerve was exposed at mid-thigh level through a small incision and one-third to one-half of the nerve thickness was tightly ligated with a silk thread. The wound was closed with a single muscle suture and skin clips, and dusted with streptomycin powder. In sham-operated animals, the nerve was exposed but not ligated.
as §1, §2

Row | SMILES | TPA-induced edema of abdominal skin (C57BL6/J mice) | mechanical and thermal sensitivity in CFA arthritis (Swiss mice [1]) | spinal tissue levels of PKA α catalytic subunit (PKAα catalytic subunit) | early and late phase formalin-evoked nociception, combination with anandamide (mice; Swiss mice) | anti-inflammatory effect (paw weight) after formalin (mice) | formalin pain in PPARα−/− mice (mice; 50 μg i.pl.) | ED50 of antinociceptive effect in the formalin model (mice; i.pl.) | phase I and II formalin pain in wild-type mice (mice; wild-type C57BL6 mice, 50 μg i.pl.) | mechanical sensitivity thresholds after repeated dosing, vs vehicle-treated mice (Swiss mice [2]; 30 mg-kg^−1 s.c. once a day for 14 consecutive days from surgery) | mechanical and thermal pain thresholds in the non-ligated paw of neuropathic mice (Swiss mice [2]) | dose dependence of antihyperalgesic response (mechanical withdrawal, day 14) (Swiss mice [2]; s.c.) | neuropathic hypersensitivity (mechanical and thermal pain thresholds), ligated limb (Swiss mice [2]) | first- and second-phase nociception (mice; Swiss mice, i.pl. together with formalin, GW7647 0.1-50 μg, Wy-14643 50-200 μg, fenofibric acid 100-400 μg) | average half-maximal effective dose (ED50) to reduce first-phase pain (mice; intraplantar with formalin, Swiss mice, ten experiments)
1 | CCCCCCCCCCCCCCCC(=O)NCCO [PEA, palmitoylethanolamide] | attenuated TPA-induced edema | suppressed | slightly decreased | synergistically inhibit | absence of anti-inflammatory effects | absent | 7.4 µg | attenuated these responses only in wild-type animals | significantly higher | did not affect | dose-dependent | reversal of neuropathic hypersensitivity | – | –
2 | CC(C)(Sc1ccc(CCN(CCCCC2CCCCC2)C(=O)NC2CCCCC2)cc1)C(=O)O [GW7647] | attenuated TPA-induced edema | suppressed | – | Mimicry of this synergism | absence of anti-inflammatory effects | failed to respond | – | – | – | did not affect | – | mimicked | attenuated first- and second-phase nociception in a dose-dependent manner | 9.9 µg
